Measured values published in patent US20170327598A1, “SINGLE DOMAIN ANTIBODIES DIRECTED AGAINST INTRACELLULAR ANTIGENS” (SINGH MOLECULAR MEDICINE, LLC, priority 2014, published 2017).
Where “and” joins values, the source holds several entries; their conditions need not be identical. Equal values may be shown once.

Legend:
ARPE-19 cells = experiment: BCA protein content of ARPE-19 cell lysate, Experiment 1; assay type: cell-based; details: 24 Hr; for Protein Conc.: cell lysate
Method: For Experiment 1, the retinal cell line ARPE-19 (ATCC, Manassas, Va.) were plated at 5×10^4 cells/well into a 24-well plate and grown to confluence. All incubations with cells were performed in a 37° C., 5% CO2 humidified incubator. The media was replaced with growth media (DMEM:HAM12) containing 1% FBS and incubated overnight. […] At that time, the supernatant was removed and stored at <−65° C. for ELISA analysis. Cells were lysed using RIPA lysis buffer (ThermoFisher Scientific, Rockford, Ill.) and the protein content of the cell lysate was measured in the BCA assay (ThermoFisher Scientific) according to the kit instructions. VEGF-A was measured utilizing the Human VEGF-A ELISA Kit (ThermoFisher Scientific) in accordance with the kit instructions.
ELISA results were reported as pictograms (pg) VEGF-A/mL and then adjusted for the dilution of samples in the ELISA (1:2 for Experiment 1 and 1:5 for Experiment 2). The ELISA results were then normalized for protein content. […] The positive control (PC) (anti-STAT3 monoclonal antibody) ranged from 48.8 to 66.4 pg VEFG/[…] slightly lower but overlapping the range seen with the negative control. Statistical analysis confirmed that the variation seen was not statistically significant (P value >0.05). The samples collected at 72 hours were higher than the top standard curve.

SJSA cells = experiment: Anti-proliferative effect, SJSA cells; assay type: cell-based; details: for Absorbance ± S.E.: 72 hr
[1] = test system: VEGF-A production in ARPE-19 cells; experiment: VEGF-A ELISA in ARPE-19 retinal cells, Experiment 2;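 for all read-outs here: confluent ARPE-19 cells in 96-well plates, VEGF-A in culture supernatant quantified by ELISA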; assay type: cell-based, human; details: for pg VEGF-A per mL: based on collecting 0.1 ml of supernatant; for Mean (pg VEGF-A per mL): mean of Adj. Result, Wells 1-3; for Mean (pg VEGF-A per μg protein): mean of Wells 1-3; for Mean (pg VEGF-A per μg protein) / % Control: Experiment 2; for % Control: normalized for protein; for Mean Result (pg VEGF-A per mL) / pg VEGF-A per μg protein / Adj. Result (pg VEGF-A per mL): per well; for Adj. Result (pg VEGF-A per mL): adjusted for dilution; for Result (pg VEGF-A per mL): single reads

Substance: Anti-STAT3 VHH13: anti-STAT3 single domain antibody, SEQ ID NO:3; bacterially produced form referred to as SBT-100
- Total protein per well (ARPE-19 cells; 0.1 μg/well): 12 and 16 and 18
- Protein Conc. (ARPE-19 cells; 0.1 μg/well): 245 µg/mL and 323 µg/mL and 357 µg/mL
- Total protein per well (ARPE-19 cells; 0.5 μg/well): 16 and 13
- Protein Conc. (ARPE-19 cells; 0.5 μg/well): 315 µg/mL and 268 µg/mL and 206 µg/mL
- Absorbance ± S.E. (SJSA cells; 25 μg/ml): 1.36 ± 0.09
- Absorbance ± S.E. (SJSA cells; 50 μg/ml): 0.90 ± 0.04
- Absorbance ± S.E. (SJSA cells; 100 μg/ml): 0.27 ± 0.01
- Absorbance ± S.E. (SJSA cells; 200 μg/ml): 0.26 ± 0.01
- IC50 (SJSA cells; SJSA cells): 51 mg/L
- % Negative Control ([1]; 0.1 μg/well, 12 Hr): 123.8%
- pg VEGF-A per mL ([1]; 0.1 μg/well, 12 Hr): 18.6 pg VEGF-A per mL and 14.3 pg VEGF-A per mL and 15 pg VEGF-A per mL
- Mean (pg VEGF-A per mL) ([1]; 0.1 μg/well, 12 Hr): 159.7 pg VEGF-A per mL
- Mean (pg VEGF-A per μg protein) ([1]; 0.1 μg/well, 12 Hr): 2.540 pg VEGF-A per μg protein
- % Control ([1]; 0.1 μg/well, 12 Hr): 134.4%
- Mean Result (pg VEGF-A per mL) ([1]; 0.1 μg/well, 12 Hr): 37.2 pg VEGF-A per mL and 28.54 pg VEGF-A per mL and 30.06 pg VEGF-A per mL
- pg VEGF-A per μg protein ([1]; 0.1 μg/well, 12 Hr): 3 pg VEGF-A per μg protein and 2.1 pg VEGF-A per μg protein and 2.4 pg VEGF-A per μg protein
- Adj. Result (pg VEGF-A per mL) ([1]; 0.1 μg/well, 12 Hr): 186.02 pg VEGF-A per mL and 142.71 pg VEGF-A per mL and 150.31 pg VEGF-A per mL
- Result (pg VEGF-A per mL) ([1]; 0.1 μg/well, 12 Hr): 30.38 pg VEGF-A per mL and 36.84 pg VEGF-A per mL and 37.57 pg VEGF-A per mL and 29.44 pg VEGF-A per mL and 27.64 pg VEGF-A per mL and 29.74 pg VEGF-A per mL
- % Negative Control ([1]; 0.1 μg/well, 24 Hr): 93.6%
- pg VEGF-A per mL ([1]; 0.1 μg/well, 24 Hr): 27.9 pg VEGF-A per mL and 28 pg VEGF-A per mL and 30.4 pg VEGF-A per mL
- Mean (pg VEGF-A per mL) ([1]; 0.1 μg/well, 24 Hr): 287.4 pg VEGF-A per mL
- Mean (pg VEGF-A per μg protein) ([1]; 0.1 μg/well, 24 Hr): 4.152 pg VEGF-A per μg protein
- % Control ([1]; 0.1 μg/well, 24 Hr): 94.1%
- Mean Result (pg VEGF-A per mL) ([1]; 0.1 μg/well, 24 Hr): 55.73 pg VEGF-A per mL and 56.02 pg VEGF-A per mL and 60.72 pg VEGF-A per mL
- pg VEGF-A per μg protein ([1]; 0.1 μg/well, 24 Hr): 3.8 pg VEGF-A per μg protein and 4.0 pg VEGF-A per μg protein and 4.7 pg VEGF-A per μg protein
- Adj. Result (pg VEGF-A per mL) ([1]; 0.1 μg/well, 24 Hr): 278.66 pg VEGF-A per mL and 280.09 pg VEGF-A per mL and 303.58 pg VEGF-A per mL
- Result (pg VEGF-A per mL) ([1]; 0.1 μg/well, 24 Hr): 58.86 pg VEGF-A per mL and 52.60 pg VEGF-A per mL and 59.52 pg VEGF-A per mL and 52.51 pg VEGF-A per mL and 64.54 pg VEGF-A per mL and 56.89 pg VEGF-A per mL
- % Negative Control ([1]; 0.1 μg/well, 48 Hr): 100%
- pg VEGF-A per mL ([1]; 0.1 μg/well, 48 Hr): 94.7 pg VEGF-A per mL and 85.1 pg VEGF-A per mL and 110 pg VEGF-A per mL
- Mean (pg VEGF-A per mL) ([1]; 0.1 μg/well, 48 Hr): 966 pg VEGF-A per mL
- Mean (pg VEGF-A per μg protein) ([1]; 0.1 μg/well, 48 Hr): 14.067 pg VEGF-A per μg protein
- % Control ([1]; 0.1 μg/well, 48 Hr): 107.4%
- Mean Result (pg VEGF-A per mL) ([1]; 0.1 μg/well, 48 Hr): 189.30 pg VEGF-A per mL and 170.27 pg VEGF-A per mL and 220.04 pg VEGF-A per mL
- pg VEGF-A per μg protein ([1]; 0.1 μg/well, 48 Hr): 14.1 pg VEGF-A per μg protein and 13.1 pg VEGF-A per μg protein and 15.1 pg VEGF-A per μg protein
- Adj. Result (pg VEGF-A per mL) ([1]; 0.1 μg/well, 48 Hr): 946.50 pg VEGF-A per mL and 851.33 pg VEGF-A per mL and 1100.22 pg VEGF-A per mL
- Result (pg VEGF-A per mL) ([1]; 0.1 μg/well, 48 Hr): 195.75 pg VEGF-A per mL and 182.85 pg VEGF-A per mL and 173.80 pg VEGF-A per mL and 166.73 pg VEGF-A per mL and 220.87 pg VEGF-A per mL and 219.22 pg VEGF-A per mL
- % Negative Control ([1]; 1 μg/well, 12 Hr): 110.5%
- pg VEGF-A per mL ([1]; 1 μg/well, 12 Hr): 12.9 pg VEGF-A per mL and 13.7 pg VEGF-A per mL and 16.1 pg VEGF-A per mL
- Mean (pg VEGF-A per mL) ([1]; 1 μg/well, 12 Hr): 142.5 pg VEGF-A per mL
- Mean (pg VEGF-A per μg protein) ([1]; 1 μg/well, 12 Hr): 2.273 pg VEGF-A per μg protein
- % Control ([1]; 1 μg/well, 12 Hr): 120.3%
- Mean Result (pg VEGF-A per mL) ([1]; 1 μg/well, 12 Hr): 25.82 pg VEGF-A per mL and 27.43 pg VEGF-A per mL and 32.23 pg VEGF-A per mL
- pg VEGF-A per μg protein ([1]; 1 μg/well, 12 Hr): 2 pg VEGF-A per μg protein and 2.2 pg VEGF-A per μg protein and 2.7 pg VEGF-A per μg protein
- Adj. Result (pg VEGF-A per mL) ([1]; 1 μg/well, 12 Hr): 129.12 pg VEGF-A per mL and 137.14 pg VEGF-A per mL and 161.16 pg VEGF-A per mL
- Result (pg VEGF-A per mL) ([1]; 1 μg/well, 12 Hr): 26.74 pg VEGF-A per mL and 24.91 pg VEGF-A per mL and 26.62 pg VEGF-A per mL and 28.24 pg VEGF-A per mL and 33.18 pg VEGF-A per mL and 31.29 pg VEGF-A per mL
- % Negative Control ([1]; 1 μg/well, 24 Hr): 106.8%
- pg VEGF-A per mL ([1]; 1 μg/well, 24 Hr): 37.3 pg VEGF-A per mL and 31.2 pg VEGF-A per mL and 29.9 pg VEGF-A per mL
- Mean (pg VEGF-A per mL) ([1]; 1 μg/well, 24 Hr): 327.9 pg VEGF-A per mL
- Mean (pg VEGF-A per μg protein) ([1]; 1 μg/well, 24 Hr): 4.084 pg VEGF-A per μg protein
- Mean Result (pg VEGF-A per mL) ([1]; 1 μg/well, 24 Hr): 74.61 pg VEGF-A per mL and 62.42 pg VEGF-A per mL and 59.71 pg VEGF-A per mL
- Adj. Result (pg VEGF-A per mL) ([1]; 1 μg/well, 24 Hr): 373.06 pg VEGF-A per mL and 312.11 pg VEGF-A per mL and 298.74 pg VEGF-A per mL
- Result (pg VEGF-A per mL) ([1]; 1 μg/well, 24 Hr): 78.44 pg VEGF-A per mL and 70.78 pg VEGF-A per mL and 68.61 pg VEGF-A per mL and 56.23 pg VEGF-A per mL and 63.71 pg VEGF-A per mL and 55.71 pg VEGF-A per mL
- pg VEGF-A per mL ([1]; 1 μg/well, 48 Hr): 87.6 pg VEGF-A per mL and 101.9 pg VEGF-A per mL and 111.9 pg VEGF-A per mL
- Mean (pg VEGF-A per mL) ([1]; 1 μg/well, 48 Hr): 1004.7 pg VEGF-A per mL
- Mean (pg VEGF-A per μg protein) ([1]; 1 μg/well, 48 Hr): 13.796 pg VEGF-A per μg protein
- % Control ([1]; 1 μg/well, 48 Hr): 105.4%
